From US12398132B2, “Derivatives of 4-(imidazo[1,2-a]pyridin-3-yl)-n-(pyridinyl)pyrimidin-2-amine as therapeutic agents” (AUCENTRA THERAPEUTICS PTY LTD, priority 2019, dated 2025)
Read-outs that look alike come from different tables or passages of the source.

Legend:
CDK1B = CDK1B (Homo sapiens, UniProt P06493)
CDK7HMAT1 = CDK7HMAT1 (Homo sapiens, UniProt P50613);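 also: kinase activity measured with an ADP-Glo luminescent kinase assay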
CDK6/D3 = CDK6/D3 (Homo sapiens, UniProt Q00534); experiment: ADP Glo kinase assay, CDK6/D3; format: biochemical; details: CDK6D3; for remaining activity at 10 µM: compound at 10 μM, read-out: residual enzymatic activity (%) at 10 μM; for remaining activity at 1 µM: compound at 1 μM (values marked *), read-out: residual enzymatic activity (%) at 1 μM*
Sequence of CDK6/D3 (Q00534 whole entry, species assumed): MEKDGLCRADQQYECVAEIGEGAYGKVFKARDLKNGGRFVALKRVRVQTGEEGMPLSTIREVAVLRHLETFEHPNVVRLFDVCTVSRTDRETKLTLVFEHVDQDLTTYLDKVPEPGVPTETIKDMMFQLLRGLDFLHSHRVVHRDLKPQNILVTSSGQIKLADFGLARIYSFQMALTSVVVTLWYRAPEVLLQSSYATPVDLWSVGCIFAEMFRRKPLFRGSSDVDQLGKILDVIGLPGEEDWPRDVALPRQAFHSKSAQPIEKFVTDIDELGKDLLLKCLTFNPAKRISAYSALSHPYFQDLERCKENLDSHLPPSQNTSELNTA
Sequence of CDK6/D3 (P30281 whole entry partner, species assumed): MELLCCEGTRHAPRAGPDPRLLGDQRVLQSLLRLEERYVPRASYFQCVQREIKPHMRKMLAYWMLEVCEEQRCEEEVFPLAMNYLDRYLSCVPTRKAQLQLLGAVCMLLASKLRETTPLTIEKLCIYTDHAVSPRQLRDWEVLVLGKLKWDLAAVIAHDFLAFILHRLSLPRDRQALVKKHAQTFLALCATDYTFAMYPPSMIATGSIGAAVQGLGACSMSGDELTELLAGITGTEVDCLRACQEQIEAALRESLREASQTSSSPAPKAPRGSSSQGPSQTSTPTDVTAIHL
Procedure: (§1) Inhibition of FLT3(WT), FLT3(ITD) and FLT3(D835Y) and CDKs were determined using ADP Glo Kinase assays (Promega Corporation, Madison, WI, USA). […] Similarly, kinase reaction for CDK4/D1 and CDK6/D3 was performed with reaction buffer (40 nM Tris base pH 7.5, 20 mM MgCl2, 0.4 mM DTT), 0.1 mg/ml BSA and RB-CTF substrate (retinoblastoma protein1 C-terminal fraction). For CDK9/CyclinT1, the kinase reaction was performed with the standard assay buffer and Kinase Dilution Buffer and RBER-IRStide substrate. Half-maximal inhibition (IC50) values were calculated using a 4-parameter logistic non-linear regression model with Graphpad prism (Version 6.0). Apparent inhibition constants (Ki) values were calculated from Km (ATP) and IC50 values for the respective kinases.

MV-4-11 = experiment: Proliferation assay (resazurin/MTT), MV-4-11; format: cell-based; details: Homo sapiens, MV4-11, read-out: 72 h Growth inhibition GI50, MV-4-11 cells
CDK2E1 = CDK2E1 (Homo sapiens, UniProt P24941); details: 1 µM
CDK4/D1 = CDK4/D1 (Homo sapiens, UniProt P11802); experiment: ADP Glo kinase assay, CDK4/D1; format: biochemical; details: CDK4D1; for remaining activity at 10 µM: compound at 10 μM, read-out: residual enzymatic activity (%) at 10 μM; for remaining activity at 1 µM: compound at 1 μM (values marked *), read-out: residual enzymatic activity (%) at 1 μM*
Sequence of CDK4/D1 (P11802 whole entry, species assumed): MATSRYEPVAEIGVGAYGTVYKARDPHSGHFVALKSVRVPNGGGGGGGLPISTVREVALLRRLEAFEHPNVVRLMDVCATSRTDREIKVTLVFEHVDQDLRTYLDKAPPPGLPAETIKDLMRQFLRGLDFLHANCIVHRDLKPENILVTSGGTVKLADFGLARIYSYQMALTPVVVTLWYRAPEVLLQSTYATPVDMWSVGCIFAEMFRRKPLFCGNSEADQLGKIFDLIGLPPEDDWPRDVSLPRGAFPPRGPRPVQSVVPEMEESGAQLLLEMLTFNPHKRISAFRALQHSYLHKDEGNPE
Sequence of CDK4/D1 (P24385 whole entry partner, species assumed): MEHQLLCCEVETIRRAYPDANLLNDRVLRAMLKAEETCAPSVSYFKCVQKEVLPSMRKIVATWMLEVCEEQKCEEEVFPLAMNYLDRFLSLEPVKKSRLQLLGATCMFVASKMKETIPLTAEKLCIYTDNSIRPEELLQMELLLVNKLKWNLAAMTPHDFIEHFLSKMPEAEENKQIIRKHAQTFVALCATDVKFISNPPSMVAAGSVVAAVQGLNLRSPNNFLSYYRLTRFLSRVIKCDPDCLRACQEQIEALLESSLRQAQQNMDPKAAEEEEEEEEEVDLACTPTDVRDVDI
Procedure: as §1

CDK9/CyclinT1 = CDK9/CyclinT1 (Homo sapiens, UniProt P50750); experiment: ADP Glo kinase assay, CDK9/CyclinT1; format: biochemical; details: CDK9T1; for Ki: apparent Ki calculated from Km (ATP) and IC50, read-out: CDK inhibition Ki; for remaining activity at 10 µM: compound at 10 μM, read-out: residual enzymatic activity (%) at 10 μM; for remaining activity at 1 µM: compound at 1 μM (values marked *), read-out: residual enzymatic activity (%) at 1 μM*
Sequence of CDK9/CyclinT1 (P50750 whole entry, species assumed): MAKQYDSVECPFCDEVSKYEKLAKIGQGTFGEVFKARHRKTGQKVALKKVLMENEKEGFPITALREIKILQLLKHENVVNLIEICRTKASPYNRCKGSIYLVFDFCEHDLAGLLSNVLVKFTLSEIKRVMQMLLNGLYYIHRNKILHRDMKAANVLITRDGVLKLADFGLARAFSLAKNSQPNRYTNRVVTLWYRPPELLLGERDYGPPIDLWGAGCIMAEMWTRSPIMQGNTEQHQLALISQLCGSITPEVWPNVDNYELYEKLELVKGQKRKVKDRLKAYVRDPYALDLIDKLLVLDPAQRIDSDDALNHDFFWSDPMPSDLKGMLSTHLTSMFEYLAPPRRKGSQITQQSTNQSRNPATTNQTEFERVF
Sequence of CDK9/CyclinT1 (O60563 whole entry partner, species assumed): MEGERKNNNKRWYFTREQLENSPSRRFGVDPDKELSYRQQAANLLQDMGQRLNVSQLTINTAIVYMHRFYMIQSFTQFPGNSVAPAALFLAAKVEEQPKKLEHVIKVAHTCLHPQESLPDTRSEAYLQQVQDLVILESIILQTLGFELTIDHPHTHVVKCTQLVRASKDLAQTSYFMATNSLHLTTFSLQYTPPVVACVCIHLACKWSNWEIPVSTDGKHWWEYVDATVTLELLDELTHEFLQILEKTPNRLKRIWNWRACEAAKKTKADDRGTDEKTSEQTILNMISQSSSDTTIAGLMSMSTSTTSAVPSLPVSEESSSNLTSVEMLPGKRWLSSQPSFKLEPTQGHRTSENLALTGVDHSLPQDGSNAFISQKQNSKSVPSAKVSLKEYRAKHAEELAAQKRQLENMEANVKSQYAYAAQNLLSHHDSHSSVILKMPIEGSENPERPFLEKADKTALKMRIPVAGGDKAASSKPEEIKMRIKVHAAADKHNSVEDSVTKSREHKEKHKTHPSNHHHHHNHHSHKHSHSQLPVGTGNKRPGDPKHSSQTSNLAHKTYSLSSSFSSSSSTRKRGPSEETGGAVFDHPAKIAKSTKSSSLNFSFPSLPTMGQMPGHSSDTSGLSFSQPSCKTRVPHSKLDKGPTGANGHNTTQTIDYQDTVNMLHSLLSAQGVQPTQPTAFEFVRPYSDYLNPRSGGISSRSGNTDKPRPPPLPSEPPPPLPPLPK

U937 = experiment: Proliferation assay (resazurin/MTT), U937; format: cell-based; details: Homo sapiens, U-937, read-out: 72 h Growth inhibition GI50, U937 cells

Sequence of CDK1B (P06493 whole entry): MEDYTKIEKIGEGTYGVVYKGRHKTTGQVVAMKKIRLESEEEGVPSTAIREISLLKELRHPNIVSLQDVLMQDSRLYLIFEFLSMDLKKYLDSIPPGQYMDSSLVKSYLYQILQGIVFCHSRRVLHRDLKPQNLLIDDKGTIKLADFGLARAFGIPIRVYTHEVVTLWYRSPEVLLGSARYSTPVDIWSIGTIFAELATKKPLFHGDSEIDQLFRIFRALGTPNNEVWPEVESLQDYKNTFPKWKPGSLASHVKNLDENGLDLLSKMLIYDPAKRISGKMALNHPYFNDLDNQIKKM
Sequence of CDK1B (P14635 whole entry partner): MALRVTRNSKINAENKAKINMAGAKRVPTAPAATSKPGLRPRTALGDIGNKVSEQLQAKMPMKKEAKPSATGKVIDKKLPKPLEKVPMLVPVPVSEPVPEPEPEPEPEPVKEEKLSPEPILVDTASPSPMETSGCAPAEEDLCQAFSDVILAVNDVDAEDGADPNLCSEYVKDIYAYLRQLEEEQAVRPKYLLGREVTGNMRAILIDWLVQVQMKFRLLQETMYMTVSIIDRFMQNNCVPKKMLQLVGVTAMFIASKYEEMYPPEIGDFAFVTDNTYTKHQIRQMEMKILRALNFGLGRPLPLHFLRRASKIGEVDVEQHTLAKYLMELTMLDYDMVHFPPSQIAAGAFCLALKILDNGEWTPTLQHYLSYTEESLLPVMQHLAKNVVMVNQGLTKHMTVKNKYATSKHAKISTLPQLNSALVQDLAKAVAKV
Sequence of CDK7HMAT1 (P50613 whole entry): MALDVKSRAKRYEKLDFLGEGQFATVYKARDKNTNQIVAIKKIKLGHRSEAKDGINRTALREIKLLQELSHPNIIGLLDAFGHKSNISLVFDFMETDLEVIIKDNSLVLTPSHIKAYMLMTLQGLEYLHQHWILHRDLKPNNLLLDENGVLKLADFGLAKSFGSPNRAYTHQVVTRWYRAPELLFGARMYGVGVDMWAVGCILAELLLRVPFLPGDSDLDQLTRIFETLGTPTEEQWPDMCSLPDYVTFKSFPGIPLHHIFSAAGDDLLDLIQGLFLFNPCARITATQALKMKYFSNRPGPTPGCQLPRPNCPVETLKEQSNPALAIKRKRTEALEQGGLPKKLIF
Sequence of CDK7HMAT1 (P51946 whole entry partner): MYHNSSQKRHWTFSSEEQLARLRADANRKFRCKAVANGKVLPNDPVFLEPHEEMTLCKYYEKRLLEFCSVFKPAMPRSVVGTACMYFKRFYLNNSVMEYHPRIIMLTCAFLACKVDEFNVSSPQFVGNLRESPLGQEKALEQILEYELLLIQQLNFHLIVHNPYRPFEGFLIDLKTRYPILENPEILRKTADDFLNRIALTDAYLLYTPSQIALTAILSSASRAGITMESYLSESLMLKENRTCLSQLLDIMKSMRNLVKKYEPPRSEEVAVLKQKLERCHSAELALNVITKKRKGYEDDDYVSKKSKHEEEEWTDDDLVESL
Sequence of CDK7HMAT1 (P51948 whole entry partner): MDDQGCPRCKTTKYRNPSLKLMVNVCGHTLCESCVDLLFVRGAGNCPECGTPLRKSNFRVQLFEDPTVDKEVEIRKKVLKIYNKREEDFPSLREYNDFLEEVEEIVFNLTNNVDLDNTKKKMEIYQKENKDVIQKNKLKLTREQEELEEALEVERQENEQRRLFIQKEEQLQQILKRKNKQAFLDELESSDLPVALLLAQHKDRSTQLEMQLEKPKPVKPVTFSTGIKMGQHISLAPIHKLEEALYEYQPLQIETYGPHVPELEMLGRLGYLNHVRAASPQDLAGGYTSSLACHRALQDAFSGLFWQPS

activity (CDK1B; 10 µM) | activity (CDK7HMAT1; 10 µM) | remaining activity at 10 µM (CDK6/D3) | GI50 (MV-4-11) | activity (CDK2E1) | remaining activity at 10 µM (CDK4/D1) | Ki (CDK9/CyclinT1) | GI50 (U937) | Ki (CDK6/D3; apparent Ki calculated from Km (ATP) and IC50, read-out: CDK inhibition Ki) | remaining activity at 10 µM (CDK9/CyclinT1) | activity (CDK1B; 1 µM) | activity (CDK7HMAT1; 1 µM) | remaining activity at 1 µM (CDK6/D3) | remaining activity at 1 µM (CDK4/D1) | remaining activity at 1 µM (CDK9/CyclinT1) | SMILES
50% | 70% | 24% | 35 nM | 85% | 48% | 1380 nM | 11400 nM | – | – | – | – | – | – | – | CC(=O)N1CCCN(c2ccc(Nc3nccc(-c4cnc5ccccn45)n3)nc2)CC1 [Cmpd 6, 1-(4-(6-((4-(Imidazo[1,2-a]pyridin-3-yl)pyrimidin-2-yl)amino)pyridin-3-yl)-1,4-diazepan-1-yl)ethan-1-one]
27% | 82% | 40% | 30 nM | 59% | 27% | 289 nM | 1410 nM | – | – | – | – | – | – | – | CC(=O)N1CCN(c2ccc(Nc3nccc(-c4cnc5ccc(F)cn45)n3)nc2)CC1 [Cmpd 8, 1-(4-(6-((4-(6-Fluoroimidazo[1,2-a]pyridin-3-yl)pyrimidin-2-yl)amino)pyridin-3-yl)piperazin-1-yl)ethan-1-one]
38% | 60% | – | 14 nM | 97% | 46% | – | 3900 nM | > 5000 nM | 32% | – | – | – | – | – | CC(=O)N1CCN(c2ccc(Nc3nccc(-c4cnc5ccc(C(F)(F)F)cn45)n3)nc2)CC1 [Cmpd 11, 1-(4-(6-((4-(6-(Trifluoromethyl)imidazo[1,2-a]pyridin-3-yl)pyrimidin-2-yl)amino)pyridin-3-yl)piperazin-1-yl)ethan-1-one]
70% | 86% | 42% | 9 nM | 67% | 93% | – | 400 nM | – | 29% | – | – | – | – | – | CC(=O)N1CCN(c2ccc(Nc3nccc(-c4cnc5ccc(-c6ccco6)cn45)n3)nc2)CC1 [Cmpd 12, 1-(4-(6-((4-(6-(Furan-2-yl)imidazo[1,2-a]pyridin-3-yl)pyrimidin-2-yl)amino)pyridin-3-yl)piperazin-1-yl)ethan-1-one]
94% | 78% | 92% | 7 nM | 56% | 69% | 699 nM | 664 nM | – | – | – | – | – | – | – | CC(=O)N1CCN(c2ccc(Nc3nccc(-c4cnc5ccc(-c6ccccc6)cn45)n3)nc2)CC1 [Cmpd 14, 1-(4-(6-((4-(6-Phenylimidazo[1,2-a]pyridin-3-yl)pyrimidin-2-yl)amino)pyridin-3-yl)piperazin-1-yl)ethan-1-one]
64% | 65% | 91% | 5 nM | 88% | 77% | 680 nM | 1480 nM | – | – | – | – | – | – | – | CC(=O)N1CCN(c2ccc(Nc3nccc(-c4cnc5ccc(-c6cccnc6)cn45)n3)nc2)CC1 [Cmpd 15, 1-(4-(6-((4-(6-(Pyridin-3-yl)imidazo[1,2-a]pyridin-3-yl)pyrimidin-2-yl)amino)pyridin-3-yl)piperazin-1-yl)ethan-1-one]
69% | 99% | 100% | 23 nM | 97% | 48% | – | 8700 nM | – | – | – | – | – | – | – | CC(=O)N1CCN(c2ccc(Nc3nccc(-c4cnc5ccc(-c6cnc(N)nc6)cn45)n3)nc2)CC1 [Cmpd 18, 1-(4-(6-((4-(6-(2-Aminopyrimidin-5-yl)imidazo[1,2-a]pyridin-3-yl)pyrimidin-2-yl)amino)pyridin-3-yl)piperazin-1-yl)ethan-1-one]
96% | 54% | 65% | 17 nM | 82% | 53% | – | 6710 nM | – | 33% | – | – | – | – | – | COc1ncc(-c2ccc3ncc(-c4ccnc(Nc5ccc(N6CCN(C(C)=O)CC6)cn5)n4)n3c2)cn1 [Cmpd 19, 1-(4-(6-((4-(6-(2-Methoxypyrimidin-5-yl)imidazo[1,2-a]pyridin-3-yl)pyrimidin-2-yl)amino)pyridin-3-yl)piperazin-1-yl)ethan-1-one]
95% | 97% | 102% | 17 nM | 86% | 78% | > 5000 nM | 4560 nM | – | – | – | – | – | – | – | CC(=O)N1CCN(c2ccc(Nc3nccc(-c4cnc5ccc(-c6cc7ccccc7o6)cn45)n3)nc2)CC1 [Cmpd 21, 1-(4-(6-((4-(6-(Benzofuran-2-yl)imidazo[1,2-a]pyridin-3-yl)pyrimidin-2-yl)amino)pyridin-3-yl)piperazin-1-yl)ethan-1-one]
100% | 106% | 102% | 2 nM | 83% | 64% | > 5000 nM | > 10000 nM | – | – | – | – | – | – | – | CC(=O)N1CCN(c2ccc(Nc3nccc(-c4cnc5ccc(-c6cc7ccccc7s6)cn45)n3)nc2)CC1 [Cmpd 22, 1-(4-(6-((4-(6-(Benzo[b]thiophen-2-yl)imidazo[1,2-a]pyridin-3-yl)pyrimidin-2-yl)amino)pyridin-3-yl)piperazin-1-yl)ethan-1-one]
59% | 55% | 71% | 1 nM | 76% | 50% | 421 nM | 323 nM | – | – | – | – | – | – | – | CC(=O)N1CCN(c2ccc(Nc3nccc(-c4cnc5ccc(-c6cc[nH]c6)cn45)n3)nc2)CC1 [Cmpd 23, 1-(4-(6-((4-(6-(1H-Pyrrol-3-yl)imidazo[1,2-a]pyridin-3-yl)pyrimidin-2-yl)amino)pyridin-3-yl)piperazin-1-yl)ethan-1-one]
– | – | – | 4 nM | 73% | – | – | 538 nM | – | – | 95% | 83% | 73% | 73% | 36% | CC(=O)N1CCN(c2ccc(Nc3nccc(-c4cnc5ccc(-c6ccsc6)cn45)n3)nc2)CC1 [Cmpd 26, 1-(4-(6-((4-(6-(Thiophen-3-yl)imidazo[1,2-a]pyridin-3-yl)pyrimidin-2-yl)amino)pyridin-3-yl)piperazin-1-yl)ethan-1-one]
– | – | – | 2 nM | 89% | – | – | 883 nM | – | – | 88% | 93% | 70% | 70% | 31% | CC(=O)N1CCN(c2ccc(Nc3nccc(-c4cnc5ccc(-c6cnn(C)c6)cn45)n3)nc2)CC1 [Cmpd 27, 1-(4-(6-((4-(6-(1-Methyl-1H-pyrazol-4-yl)imidazo[1,2-a]pyridin-3-yl)pyrimidin-2-yl)amino)pyridin-3-yl)piperazin-1-yl)ethan-1-one]
– | – | – | 38 nM | 92% | – | – | > 10000 nM | – | – | 101% | – | 85% | 95% | 69% | CC(=O)N1CCN(c2ccc(Nc3nccc(-c4cnc5ccc(-c6cc7ccccc7n6C)cn45)n3)nc2)CC1 [Cmpd 39, 1-(4-(6-((4-(6-(1-Methyl-1H-indol-2-yl)imidazo[1,2-a]pyridin-3-yl)pyrimidin-2-yl)amino)pyridin-3-yl)piperazin-1-yl)ethan-1-one]
– | – | – | 387 nM | 66% | – | – | > 10000 nM | – | – | 91% | – | 68% | 63% | 93% | CC(=O)N1CCN(c2ccc(Nc3ncc(C)c(-c4cnc5ccccn45)n3)nc2)CC1 [Cmpd 44, 1-(4-(6-((4-(Imidazo[1,2-a]pyridin-3-yl)-5-methylpyrimidin-2-yl)amino)pyridin-3-yl)piperazin-1-yl)ethan-1-one]
– | – | – | 7 nM | – | – | – | 2400 nM | – | – | – | – | 86% | 63% | – | CN1CCN(c2ccc(Nc3nccc(-c4cnc5ccc(-c6ccccc6)cn45)n3)nc2)CC1 [Cmpd 46, N-(5-(4-Methylpiperazin-1-yl)pyridin-2-yl)-4-(6-phenylimidazo[1,2-a]pyridin-3-yl)pyrimidin-2-amine]
– | – | – | 48 nM | 73% | – | – | 1880 nM | – | – | 90% | – | 71% | 76% | 43% | CS(=O)(=O)N1CCN(c2ccc(Nc3nccc(-c4cnc5ccccn45)n3)nc2)CC1 [Cmpd 48, 4-(Imidazo[1,2-a]pyridin-3-yl)-N-(5-(4-(methylsulfonyl)piperazin-1-yl)pyridin-2-yl)pyrimidin-2-amine]
– | – | – | 9 nM | – | – | – | 4330 nM | – | – | – | – | – | – | 52% | CS(=O)(=O)N1CCN(c2ccc(Nc3nccc(-c4cnc5ccc(-c6ccccc6)cn45)n3)nc2)CC1 [Cmpd 54, N-(5-(4-(Methylsulfonyl)piperazin-1-yl)pyridin-2-yl)-4-(6-phenylimidazo[1,2-a]pyridin-3-yl)pyrimidin-2-amine]
